According to patent US8633245B2, “PAI-1 inhibitor” (Institute of Medicinal Molecular Design, Inc., priority 2008, dated 2014):
Like-named read-outs stand apart in the source and are kept apart here.

Biological target: T1, recombinant human PAI-1 (Homo sapiens, UniProt P05121)
T1 construct: purchased Molecular Innovations, Inc
Assay: Test Example 2: human PAI-1 inhibitory activity (tPA fluorogenic substrate, pH 7.4 HEPES buffer)
Format: biochemical
Procedure: 0.1 M HEPES, 0.1 M NaCl. 1 mM EDTA. 0.1% Polyethylene glycol 8,000 (Hampton Research Corporation),
2 mM Dimethyldecylphoshine oxide [Apo-10] (Fluka Corporation)

[1] = read-out: Inhibition Rate of PAI-1 Activity (%)
[2] = human PAI-1, compound concentration 0.1 μM
[3] = human PAI-1, compound concentration 0.3 μM
[4] = human PAI-1, compound concentration 1 μM
[5] = human PAI-1, compound concentration 3 μM
[6] = human PAI-1, compound concentration 10 μM
[7] = human PAI-1, compound concentration 25 μM
[8] = human PAI-1, calculated from the inhibition rates
[9] = human PAI-1, compound concentration 0.1 μM, 0.1 µM
[10] = human PAI-1, compound concentration 1 μM, 1 µM

T1 sequence (P05121 24-402): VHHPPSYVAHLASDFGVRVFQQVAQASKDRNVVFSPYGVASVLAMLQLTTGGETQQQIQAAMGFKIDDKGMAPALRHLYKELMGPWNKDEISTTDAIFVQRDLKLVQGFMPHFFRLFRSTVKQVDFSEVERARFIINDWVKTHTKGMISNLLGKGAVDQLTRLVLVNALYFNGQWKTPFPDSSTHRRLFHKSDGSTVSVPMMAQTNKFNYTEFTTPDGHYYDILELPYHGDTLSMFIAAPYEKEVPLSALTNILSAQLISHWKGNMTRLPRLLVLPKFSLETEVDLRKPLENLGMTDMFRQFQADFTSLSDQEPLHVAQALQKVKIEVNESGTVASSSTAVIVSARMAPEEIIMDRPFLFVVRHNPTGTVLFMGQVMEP

Row | Inhibition Rate of PAI-1 Activity (%) [2] | Inhibition Rate of PAI-1 Activity (%) [3] | Inhibition Rate of PAI-1 Activity (%) [4] | Inhibition Rate of PAI-1 Activity (%) [5] | Compound | also measured
1 | 0% | 3% | 96% | >99% | CCCCCOc1ccc(-c2ccc(OCC(=O)O)c(Oc3ccc(C(C)(C)C)cc3)c2)cc1 [Compound 440] | –
2 | – | – | 49% | 94% | CC(C)(C)c1ccc(N(CC(=O)O)c2ccccc2Oc2ccc(OC(F)(F)F)cc2)cc1 [Compound 610] | Inhibition Rate of PAI-1 Activity (%) [6]: 97%; Inhibition Rate of PAI-1 Activity (%) [7]: 86%
3 | 13% | 27% | 97% | 93% | CC(C)(C)c1ccc(Oc2cc(-c3cccc(OC(F)(F)F)c3)ccc2/C=C/C(=O)O)cc1 [Compound 503] | –
4 | 4% | 27% | 94% | >99% | CCC(C)(C)c1ccc(Oc2cc(-c3ccc(OC(F)(F)F)cc3)ccc2CCC(=O)O)cc1 [Compound 475] | –
5 | 1% | 12% | 87% | >99% | CC(C)(C)c1ccc(Oc2cc(Nc3ccc(OC(F)(F)F)cc3)ccc2OCC(=O)O)cc1 [Compound 536] | –
6 | 11% | 68% | >99% | >99% | CCCCc1ccc(Oc2cc(-c3ccc(OC(F)(F)F)cc3)ccc2/C=C/C(=O)O)cc1 [Compound 511] | –
7 | 4% | 9% | 88% | >99% | CC(C)(C)c1ccc(Oc2cc(-c3ccccc3OC(F)(F)F)ccc2/C=C/C(=O)O)cc1 [Compound 466] | –
8 | 4% | 22% | 96% | >99% | CC(C)(C)c1ccc(Oc2cc(-c3ccc4ccccc4c3)ccc2/C=C/C(=O)O)cc1 [Compound 469] | –
9 | 1% | 8% | 63% | >99% | CC(C)Oc1ccc(-c2ccc(OCC(=O)O)c(Oc3ccc(C(C)(C)C)cc3)c2)cc1 [Compound 460] | –
10 | 5% | 15% | 57% | >99% | O=C(O)C(=O)N(CCCCc1ccccc1)c1cc(-c2ccc(OC(F)(F)F)cc2)ccc1Oc1ccccc1 [Compound 638] | –
11 | 12% | 14% | 69% | >99% | O=C(O)/C=C/c1ccc(-c2ccc(OC(F)(F)F)cc2)cc1OCCCSc1ccccc1 [Compound 489] | –
12 | 3% | 19% | 63% | >99% | CC(C)(C)c1cccc(Oc2cc(-c3ccc(OC(F)(F)F)cc3)ccc2OCC(=O)O)c1 [Compound 436] | –
13 | – | – | 0% | 24% | CN(C(=O)c1ccc(N(Cc2ccc(C(C)(C)C)cc2)C(=O)C(=O)O)cc1)c1ccc(OC(F)(F)F)cc1 [Compound 618] | Inhibition Rate of PAI-1 Activity (%) [6]: 78%; Inhibition Rate of PAI-1 Activity (%) [7]: >99%
14 | 13% | 26% | 91% | >99% | CC(C)(C)c1ccc(Oc2cc(-c3cccc(OC(F)(F)F)c3)ccc2CCC(=O)O)cc1 [Compound 504] | –
15 | 18% | 36% | 92% | 94% | CCCCN(CC(=O)O)c1cc(-c2ccc(OC(F)(F)F)cc2)ccc1Oc1ccc(C(C)(C)C)cc1 [Compound 428] | –
16 | 11% | 33% | 90% | >99% | CC(C)(C)c1ccc(-c2ccc(/C=C/C(=O)O)c(Oc3ccc(OC(F)(F)F)cc3)c2)cc1 [Compound 478] | –
17 | 0% | 3% | 26% | 98% | O=C(O)/C=C/c1ccc(-c2ccc(OC(F)(F)F)cc2)cc1OCCCOCc1ccccc1 [Compound 487] | –
18 | – | – | 9% | 18% | O=C(O)CC(=O)N(Cc1ccccc1)c1ccc(-c2ccc(OC(F)(F)F)cc2)cc1F [Compound 602] | Inhibition Rate of PAI-1 Activity (%) [6]: 78%; Inhibition Rate of PAI-1 Activity (%) [7]: >99%
19 | 15% | 9% | 26% | >99% | CC(C)(C)Oc1ccc(Oc2cc(-c3ccc(OC(F)(F)F)cc3)ccc2CCC(=O)O)cc1 [Compound 473] | –
20 | 0% | 8% | 84% | >99% | CC(C)c1ccc(Oc2cc(-c3ccc(OC(F)(F)F)cc3)ccc2CCC(=O)O)cc1 [Compound 510] | –

More lines, now with the values behind:

Row | Compound | Inhibition Rate of PAI-1 Activity (%) [2] | Inhibition Rate of PAI-1 Activity (%) [3] | Inhibition Rate of PAI-1 Activity (%) [4] | Inhibition Rate of PAI-1 Activity (%) [5] | also measured
21 | CCCCCOc1cc(Oc2ccc(OC(F)(F)F)cc2)ccc1N(CCCCc1ccccc1)C(=O)C(=O)O [Compound 362] | – | – | – | – | IC50: 0.84 µM; inhibition at 3 µM [1]: > 99%
22 | CCCCCOc1ccc(-c2ccc(C(C)C)cc2)cc1N(CCCCc1ccccc1)C(=O)C(=O)O [Compound 678] | 19% | 33% | 97% | 94% | –
23 | CCCCCOc1ccc(-c2cccc(C(F)(F)F)c2)cc1N(CCCCc1ccccc1)C(=O)C(=O)O [Compound 378] | – | – | – | – | IC50: 0.62 µM
24 | CCCCCCC(Oc1cc(-c2ccc(OC(F)(F)F)cc2)ccc1Oc1ccccc1)C(=O)O (centres unmarked) [Compound 322] | – | – | – | – | IC50 [8]: 0.74 µM
25 | CCCCCCCOc1ccc(-c2ccc(OC(F)(F)F)cc2)cc1N(CCCCc1ccccc1)C(=O)C(=O)O [Compound 352] | – | – | – | – | IC50 [8]: 0.74 µM
26 | CC(C)(C)c1ccc(Oc2ccc(-c3cccc(C(F)(F)F)c3)cc2OCC(=O)O)cc1 [Compound 314] | – | – | – | – | IC50 [8]: 1.86 µM
27 | CCCCCN(C(=O)C(=O)O)c1cc(-c2ccc(OC(F)(F)F)cc2)ccc1OCCCCc1ccccc1 [Compound 358] | – | – | – | – | IC50 [8]: 0.9 µM
28 | CCCCC1CCC(Oc2ccc(-c3ccc(OC(F)(F)F)cc3)cc2N(CCCCc2ccccc2)C(=O)C(=O)O)CC1 (centres unmarked) [Compound 637] | 0% | 5% | 80% | 71% | –
29 | CCCCC(Oc1cc(-c2ccc(OC(F)(F)F)cc2)ccc1OCCCCc1ccc(F)cc1)C(=O)O (centres unmarked) [Compound 324] | – | – | – | – | IC50 [8]: 0.83 µM
30 | CCCCC(Oc1cc(-c2ccc(OC(F)(F)F)cc2)ccc1OCCCCc1ccc(Cl)cc1)C(=O)O (centres unmarked) [Compound 325] | – | – | – | – | IC50 [8]: 0.58 µM
31 | CCCCCOc1cc(-c2ccc(OC(F)(F)F)cc2)cc(N(CCCCc2ccccc2)C(=O)C(=O)O)c1OCCCCC [Compound 372] | – | – | – | – | IC50: 0.46 µM
32 | CCCCCOc1ccc(-c2ccc(Cl)cc2)cc1N(CCCCc1ccccc1)C(=O)C(=O)O [Compound 361] | – | – | – | – | IC50: 0.83 µM
33 | CCCCCCCCCOc1ccc(N(CCCCc2ccccc2)C(=O)C(=O)O)cc1-c1ccc(OC(F)(F)F)cc1 [Compound 387] | – | – | – | – | IC50: < 0.1 µM; inhibition at 0.3 µM [1]: > 99%; inhibition at 1 µM [1]: > 99%; inhibition at 3 µM [1]: > 99%
34 | O=C(O)C(=O)N(CCCCc1ccccc1)c1cc(-c2ccc(OC(F)(F)F)cc2)ccc1N1CCCCC1 [Compound 370] | – | – | – | – | IC50: 0.94 µM
35 | CCCCC(Oc1ccc(-c2ccc(OC(F)(F)F)cc2)cc1OCCCCc1ccccc1)C(=O)O (centres unmarked) [Compound 311] | – | – | – | – | IC50 [8]: 0.58 µM
36 | CCCCCCCCCCOc1ccc(-c2ccc(OC(F)(F)F)cc2)cc1N(CCCCc1ccccc1)C(=O)C(=O)O [Compound 365] | – | – | – | – | IC50: 0.11 µM
37 | CCCCCOc1ccc(-c2ccc(OC(F)(F)F)cc2)cc1N(CCCCc1cc(C)ccc1C)C(=O)C(=O)O [Compound 670] | 6% | 55% | 97% | 94% | –
38 | O=C(O)C(=O)N(CCCCc1ccccc1)c1ccc(N2CCCCCC2)c(-c2ccc(OC(F)(F)F)cc2)c1 [Compound 674] | 5% | 55% | >99% | 98% | –
39 | CC(C)(C)C1CCC(CN(C(=O)C(=O)O)c2ccc(-c3ccc(OC(F)(F)F)cc3)cc2)CC1 (centres unmarked) [Compound 680] | – | 9% | – | >99% | Inhibition Rate of PAI-1 Activity (%) [9]: 7%; Inhibition Rate of PAI-1 Activity (%) [10]: 77%
40 | CC(C)(C)C1CCC(CN(C(=O)C(=O)O)c2ccc(-c3ccc(OC(F)(F)F)cc3)cc2)CC1 (centres unmarked) [Compound 679] | – | 9% | – | >99% | Inhibition Rate of PAI-1 Activity (%) [9]: 6%; Inhibition Rate of PAI-1 Activity (%) [10]: 84%
41 | CCCCCOc1ccc(-c2ccc(OC(F)(F)F)cc2)cc1N(CCCSc1ccccc1)C(=O)C(=O)O [Compound 357] | – | – | – | – | IC50 [8]: 0.77 µM; inhibition at 3 µM [1]: > 99%
42 | CCCCCOc1ccc(-c2ccc(C)cc2)cc1N(CCCCc1ccccc1)C(=O)C(=O)O [Compound 677] | 19% | 17% | 93% | 98% | –
